Measured values: US11103489B2, “Drug for preventing or treating inflammatory bowel disease” (NATIONAL UNIVERSITY CORPORATION OKAYAMA UNIVERSITY, priority 2015, dated 2021)
Entries after “also recorded” stand apart in the source; their conditions may differ.

How the values were obtained:
DSS colitis model mice [1] = test: DSS (3% aqueous solution) colitis model mice, drug efficacy and side effects (2); format: in vivo, C57BL/6 mice; conditions: 3% DSS
Experimental: (§1) 1. Six-week old (body weight: 20 g) male C57BL/6 mice were purchased and acclimated for 5 to 7 days.
(§2) 2. An average weight was mated between groups having 5 to 6 animals.
3. A DSS untreated group (normal) had free access to mineral water filtered through a […] membrane filter. […]
(§3) 4. After initiation of free access to DSS-containing water, a body weight was measured every day and then an evaluated drug was orally administered.
(§4) 6. An orally administered solution was prepared by dissolving the drug in ethanol to a final concentration of 1% and suspending the solution in a 0.5% solution of carboxymethylcellulose (CMC).
(§5) 7. The drug was administered for 11 days, and the next day, a mouse was euthanized followed by blood collection and dissection. A large intestine and a spleen were isolated. A large intestine length was measured and photographs of the large intestine and the spleen were taken. A section of the large intestine was taken and photographed.

Raw264.7 cells = test: Inhibitory effect on LPS-stimulated NO production (Griess assay); conditions: LPS 100 ng/mL; for LPS-stimulated NO production: 48 hours; for NO-production inhibitory effect in combination with RU486 (GR antagonist): combined with 1 μM of RU486
DSS colitis model mice [2] = test: DSS (2% aqueous solution) colitis model mice, drug efficacy and side effects (1); format: in vivo, C57BL/6 mice
Experimental: as §1, §2
(§6) 3. A DSS untreated group (normal) had free access to mineral water filtered through a […] membrane filter. A DSS […] group (vehicle and drug group) had free access to mineral water containing 2% dextran sulfate sodium (DSS) filtered through a […] membrane filter for 6 days and then mineral water filtered through a 0.22 μM membrane filter.
as §3, §4, §5
8. The collected blood was heparinized to give plasma, which was used for determining a blood triglyceride (TG).

DSS colitis model mice [3] = test: DSS (2% aqueous solution) colitis model mice, drug efficacy and side effects (3); format: in vivo, C57BL/6 mice; conditions: 2% DSS
Experimental: as §1, §2, §6, §3, §4, §5

RXR = conditions: cited from earlier work
[4] = Measurement of a blood concentration of a drug after oral administration; format: in vivo, ICR mice; conditions: single oral dose of 3 mg/kg; at any time (0, 1, 3, 6 h); plasma
Experimental: 1. Six-week old male ICR mice (body weight: 15 to 25 g) were fasted from the evening of the day before the experiment, and a compound solution prepared in [2] below at a volume of 10 mL/kg was orally administered via a stomach tube. At 0, 1, 3, and 6 hours after the administration, the animals were anesthetized with ether, and incised the abdomen to collect blood from a large vein. The blood was transferred into a heparinized tube and centrifuged at 5000 rpm for 5 minutes, to collect 100 μL of plasma. Each treated group had five mice.
2. A dose of the compound was 30, 3, 0.3 mg/kg per an animal. A dosage form of the compound was prepared by dissolving it in ethanol to a final concentration of 1% and suspending the solution in a 0.5% solution of carboxymethylcellulose (CMC).
3. To 100 μL of the plasma were added 100 μL of an ammonium acetate buffer (prepared by adding acetic acid to 5 mM of ammonium acetate and adjusting a pH to 5), and then 1 mL of ethyl acetate. The mixture was vortexed for 30 min, allowed to stand at room temperature for 10 min and centrifuged for 30 sec to remove 800 μL of a supernatant, which was then concentrated by a centrifugal evaporator. The residue was stored at −20° C.
4. […] Then, for 20 μL of the sample, a compound concentration was determined by HPLC or LCMS. […]

[5] = Measurement of a drug concentration in feces; format: in vivo, ICR mice; conditions: for concentration in feces: oral gavage
Experimental: 1. For each treated group, four six-week old male ICR mice (body weight: 35 to 40 g) were used.
2. An orally-administered solution was prepared by dissolving it in ethanol to a final concentration of 1% and suspending the solution in a 0.5% solution of carboxymethylcellulose (CMC).
3. Each mouse was housed in a cage and had free access to feed and water.
4. After a body weight was measured at 10 a.m., the animal was gavaged with an evaluated drug via a feeding tube.
5. From the next day, feces in each cage were collected for 3 days.
6. Hundred milligrams of the feces were dried under vacuum at 40° C. and pulverized in a mortar. Then, 1.5 mL of HPLC-grade methanol was added, followed by ultrasonic extraction for 20 min.
7. After the extraction, the mixture was centrifuged at 4° C. and 1,500×g for 20 min.
8. After the centrifugation, 1 mL of the supernatant was filtered through a syringe filter and poured into a 2 mL Eppendorf tube.
9. […] The concentration was converted to a concentration per 100 mg of feces.
10. Since extraction with 1.5 mL of methanol was conducted assuming that 100 mg of the above feces corresponded to 100 μL, a concentration in feces was estimated by multiplying the concentration in methanol determined by LC/MS by […].

[6] = Measurement of a drug concentration in a large intestine; format: in vivo, ICR mice; conditions: the next day after 3 day administration
Experimental: 1. The next day of the last medication (day 3 of medication), a mouse used in Example 2 was euthanized with ether and then a large intestine was excised.
2. Faces were removed from the removed large intestine and the inside of the large intestine was washed with PBS. Excess water was removed with Kimwipes.
3. About 200 mg of the above large intestine was precisely placed in a 2 mL Eppendorf tube.
4. To the Eppendorf tube was added 800 μL of HPLC-grade methanol, and the mixture was pulverized by a homogenizer. Methanol was further added such that the total volume of methanol added became five times as much as the volume of the large intestine.
5. The mixture was ultrasonic-extracted for 20 min.
6. After the extraction, the extract was centrifuged at 4° C. and 1,500×g for 20 min.
7. After the centrifugation, about 1 mL of the supernatant was filtered through a syringe filter and poured into a 2 mL Eppendorf tube.
9. Since extraction with […] of methanol was conducted assuming that 200 mg of the above […] corresponded to 200 μL, a concentration in a large intestine was estimated by multiplying the concentration in methanol determined by LC/MS by 5.

[7] = cited from earlier work
[8] = 2% DSS, oral 100 mg/kg/day, 11 days
[9] = 2% DSS, repeated oral dosing at 10 mg/kg/day, in comparison with bexarotene

C[C@]12C=CC(=O)C=C1CC[C@@H]1[C@@H]2[C@@H](O)C[C@@]2(C)[C@H]1CC[C@]2(O)C(=O)CO [Prednisolone, prednisolone, reference compound]
anti-inflammatory effect (DSS colitis model mice [1]; oral administration at 10 mg/kg/day): did not exhibit anti-inflammatory effect
LPS-stimulated NO production (Raw264.7 cells): inhibited
NO-production inhibitory effect in combination with RU486 (GR antagonist) (Raw264.7 cells): inhibited by combination use of RU486

Nc1ccc(O)c(C(=O)O)c1 [5-Aminosalicylic acid, 5-aminosalicylic acid, reference compound]
improvement in body weight reduction (DSS colitis model mice [2]; [8]): did not contribute to improvement in body weight reduction
recovery of a large intestine length (DSS colitis model mice [2]; [8]): did not contribute

CCN(c1ccc(C(C)C)c(OCCOC)c1)c1ccc(C(=O)O)cn1 [NEt-3ME]
effect relative to NEt-3IB (DSS colitis model mice [3]; at a dose three times as much as NEt-3IB (30 vs 10 mg/kg/day)): comparable to NEt-3IB
weight change (DSS colitis model mice [3]; oral 30 mg/kg/day): inhibited body weight reduction
RXR receptor activation potency relative to NEt-3IB (RXR): less receptor activation potency than NEt-3IB

CCN(c1ccc(C(C)C)c(OCC(C)C)c1)c1ccc(C(=O)O)cn1 [NEt-3IB]
blood concentration [4]: < 0.1 µM
increase in the concentration in feces by repeated administration ([5]; 3 day oral administration): increase in the concentration by repeated administration was not found
concentration in feces ([5]; Day 1): 40 ± 6 µM
concentration in feces ([5]; Day 2): 33 ± 4 µM
concentration in feces ([5]; Day 3): 22 ± 1 µM
weight change (DSS colitis model mice [3]; oral 10 mg/kg/day): inhibited body weight reduction
concentration in a large intestine [6]: 0.0027 ± 0.0003 µM
inhibition of body weight reduction (DSS colitis model mice [1]; oral 10 mg/kg/day): prominent inhibition of body weight reduction
recovery of a large intestine length (DSS colitis model mice [1]; oral 10 mg/kg/day): recovery of a large intestine length
absorption in oral administration ([7]; reported): poorly absorbed
enlarged liver or increase in triglyceride ([7]; reportedly, in contrast to a conventional RXR full agonist): does not cause an enlarged liver or increase in triglyceride
improvement in body weight reduction (DSS colitis model mice [2]; [9]): prominent improvement in body weight reduction
recovery of a large intestine length (DSS colitis model mice [2]; [9]): recovery of a large intestine length
blood triglyceride (TG) (DSS colitis model mice [2]; 2% DSS, repeated oral dosing, compared with bexarotene): inhibited increase in blood TG; also recorded: increase in a blood triglyceride by the agent was reduced
anti-inflammatory effect on DSS enteritis (DSS colitis model mice [2]; repetitive oral administration, 1 mg/kg/day): prominent anti-inflammatory effect
LPS-stimulated NO production (Raw264.7 cells): inhibited
NO-production inhibitory effect in combination with RU486 (GR antagonist) (Raw264.7 cells): not inhibited

O=C(O)c1cc(/N=N/c2ccc(S(=O)(=O)Nc3ccccn3)cc2)ccc1O [SASP, salazosulfapyridine, reference compound]
weight change, improvement effect compared with a vehicle (DSS colitis model mice [3]; oral 200 mg×2/kg/day): did not exhibit improvement effect
